From ChEMBL document CHEMBL4651402, “Screening of ~5500 FDA-approved drugs and clinical candidates for anti-SARS-CoV-2 activity” (2021)

Tested on: SARS-CoV-2
Assay: microbe, parasite or virus in culture
Conditions: Severe acute respiratory syndrome coronavirus 2, Vero C1008, 48 h

SMILES	IC50 [µM]	IC50 (read-out: pIC50 (converted)) [µM]
C[C@H](C(=O)O)c1ccc2cc(OCc3ccc4ccccc4n3)ccc2c1	> 20	> 20
CC(=O)O[C@H]1CC[C@@]2(C)C(=CC[C@@H]3[C@@H]2CC[C@]2(C)C(=O)CC[C@@H]32)C1 [DEHYDROEPIANDROSTERONE ACETATE]	> 20	> 20
CCC(C)(C)/N=C(\NC#N)Nc1cccnc1	> 20	> 20
Cc1c(F)cc(C(=O)NC2CC2)cc1-c1ccc(C(=O)NCC(C)(C)C)cn1 [LOSMAPIMOD]	> 20	> 20
COc1cc2c(cc1Cc1cccc(Cl)c1F)c(=O)c(C(=O)O)cn2[C@@H](CO)C(C)C	> 20	> 20
CC(O)c1cc(C(=O)N[C@@H](C)Cn2ccc(-c3ccc(C#N)c(Cl)c3)n2)n[nH]1 (stereo partly specified) [DAROLUTAMIDE]	> 20	> 20
Cc1oncc1C(=O)Nc1ccc(C(F)(F)F)cc1 [LEFLUNOMIDE]	> 20	> 20
CC(C)[N+](C)(CCC(C(N)=O)(c1ccccc1)c1ccccc1)C(C)C [ISOPROPAMIDE]	> 20	> 20
O=C(O)CN(CCN(CC(=O)O)CC(=O)O)CCN(CC(=O)O)CC(=O)O [PENTETIC ACID]	> 20	> 20
O=C(OC1C[C@@H]2CC3C[C@@H](C1)N2CC3=O)c1c[nH]c2ccccc12 (stereo partly specified)	> 20	> 20
O=C(O)Cn1c2c(c3cc(F)ccc31)CN(C(=O)c1cccc3ccccc13)CC2 [SETIPIPRANT]	> 20	> 20
CNCC(=O)c1ccc(O)c(O)c1 [ADRENALONE]	> 20	> 20
CC(=O)OC1(C(C)=O)CCC2C3CC(C)C4=CCCCC4(C)C3CCC21C (stereo unspecified)	> 20	> 20
O=C(Nc1ccccc1)c1ccccc1O [SALICYLANILIDE]	> 20	> 20
CCC(C)C(C(=O)OC1CCN(C)CC1)c1ccccc1 (stereo unspecified) [PENTAPIPERIDE]	> 20	> 20
CN1CCC[C@@H]1Cc1c[nH]c2ccc(CCS(=O)(=O)c3ccccc3)cc12	> 20	> 20
CC(=O)OC1CCC2(C)C(=CCC3C2CCC2(C)C(O)CCC32)C1 (stereo unspecified)	> 20	> 20
COc1cccc(C(=O)CCNC(C)C(O)c2ccccc2)c1 (stereo unspecified)	> 20	> 20
COc1c(N2CCC/C(=C(\F)CN)C2)c(F)cc2c(=O)c(C(=O)O)cn(C3CC3)c12 [ACORAFLOXACIN]	> 20	> 20

SMILES	IC50 [µM]	IC50 (read-out: pIC50 (converted)) [µM]
Cn1c(=O)c2c(ncn2CC(O)CO)n(C)c1=O (stereo unspecified) [DYPHYLLINE]	> 20	> 20
NC(=O)[C@@H](CCC(F)(F)F)N(Cc1ccc(-c2ncon2)cc1F)S(=O)(=O)c1ccc(Cl)cc1	> 20	> 20
CN1[C@@H]2CC(=O)C[C@H]1[C@H](O)C2	> 20	> 20
CN1CCCN=C1/C=C/c1cccs1	> 20	> 20
[2H]C1([2H])[C@H]2C[C@@H](Oc3ccc(C(F)(F)F)cn3)[C@H](C2)N1C(=O)c1cccc(F)c1-c1ncccn1 [TEBIDEUTOREXANT]	> 20	> 20
C=CC[C@]1(O)CC[C@H]2[C@@H]3CCC4=CC(=O)CCC4=C3C=C[C@@]21C [ALTRENOGEST]	> 20	> 20
CC(C)CCCC(C)C1CCC2C3C=CC4=CC(=O)CCC4(C)C3CCC12C (stereo unspecified)	> 20	> 20
Nc1nc(O)c2c(n1)NCC(CNc1ccc(C(=O)N[C@@H](CCC(=O)O)C(=O)O)cc1)N2 (stereo partly specified)	> 20	> 20
N#CCC(=O)NN [CYACETACIDE]	> 20	> 20
CC1=CC(=O)c2ccccc2C1=O [MENADIONE]	> 20	> 20
CCCCCCCCCCCCCCCC(=O)OCC(NC(=O)C(Cl)Cl)C(O)c1ccc([N+](=O)[O-])cc1 (stereo unspecified)	> 20	> 20
CN(C)CC/C=C1\c2ccccc2COc2ccccc21 [E-DOXEPIN]	> 20	> 20
Nc1nc2c(ncn2COCCO)c(=O)[nH]1 [ACYCLOVIR]	> 20	> 20
CC#CCn1c(N2CCC[C@@H](N)C2)nc2c1c(=O)n(Cc1nc(C)c3ccccc3n1)c(=O)n2C [LINAGLIPTIN]	> 20	> 20
O=c1[nH]c2ccccc2n1CCN1CCN(c2cccc(C(F)(F)F)c2)CC1 [FLIBANSERIN]	> 20	> 20
CCOc1ccc(-c2ccc(Cn3c(CC(C)(C)C(=O)O)c(SC(C)(C)C)c4cc(OCc5ccc(C)cn5)ccc43)cc2)cn1 [FIBOFLAPON]	> 20	> 20
O=C(c1ccc2nccnc2c1)N1CCCCC1 [CX516]	> 20	> 20
CCC(=O)[C@@]1(C)[C@H](C)C[C@H]2[C@@H]3CCC4=CC(=O)C=C[C@]4(C)[C@H]3[C@@H](O)C[C@@]21C [RIMEXOLONE]	> 20	> 20
[2H][C@]1(O)[C@@H](CO)O[C@@H](n2ccc(N)nc2=O)[C@]1(C)O	> 20	> 20
